Experimental data published in ChEMBL document CHEMBL1201862, “PubChem BioAssay data set” (2004).
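Where inhibition never reached the appropriate level, the endpoint shown equals the highest concentration tested. Otherwise, values were interpolated linearly from a five-concentration, 48-hour dose response in 96-well plates. The concentration for 50% growth inhibition is given as GI50.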 The source made the active and inactive calls. No stated cut-off is given here; in the data, active = GI50 up to about 1.1 µM and inactive = higher.

Legend:
Test in all cases: growth of human tumour cells (NCI), 48 h
786-0 = tested on: 786-0
SK-MEL-5 = tested on: SK-MEL-5
MDA-N = tested on: MDA-N
ACHN = tested on: ACHN
SR = tested on: SR
CCRF-CEM = tested on: CCRF-CEM
M14 = tested on: M14
SF-539 = tested on: SF-539
MCF7 = tested on: MCF7
SK-MEL-2 = tested on: SK-MEL-2
CAKI-1 = tested on: CAKI-1
OVCAR-8 = tested on: OVCAR-8
OVCAR-3 = tested on: OVCAR-3
LOX IMVI = tested on: LOX IMVI
HT-29 = tested on: HT-29
SF-295 = tested on: SF-295
OVCAR-5 = tested on: OVCAR-5
PC-3 = tested on: PC-3
SN12C = tested on: SN12C

Measured: GI50

NS(=O)(=O)c1c(O)c2ccccc2oc1=O
inactive: 786-0 > 100 µM | SK-MEL-5 > 100 µM | MDA-N > 100 µM | ACHN > 100 µM | SR > 100 µM | CCRF-CEM > 100 µM | M14 > 100 µM | SF-539 > 100 µM | MCF7 > 100 µM | SK-MEL-2 > 100 µM | CAKI-1 > 100 µM | OVCAR-8 > 100 µM | OVCAR-3 > 100 µM | LOX IMVI > 100 µM | HT-29 > 100 µM | SF-295 > 100 µM | OVCAR-5 > 100 µM | PC-3 > 100 µM | SN12C > 100 µM

CC1=NN(c2nc(N)nc(CCl)n2)C(C)(C)C1
inactive: 786-0 5.68 µM | SK-MEL-5 19.8 µM | MDA-N 31.5 µM | ACHN 10.3 µM | SR 15.8 µM | CCRF-CEM 8.15 µM | M14 30.7 µM | SF-539 18.9 µM | MCF7 45 µM | SK-MEL-2 46.8 µM | CAKI-1 3.15 µM | OVCAR-8 23.9 µM | OVCAR-3 14.1 µM | LOX IMVI 1.78 µM | HT-29 29.9 µM | SF-295 25.7 µM | OVCAR-5 32 µM | PC-3 40.8 µM | SN12C 30.3 µM

O=C(Nc1ccc(Cl)c(Cl)c1)N1N=C2c3ccccc3CCC2C1c1ccc(Cl)cc1 (centres undefined)
inactive: 786-0 > 100 µM | SK-MEL-5 > 100 µM | MDA-N > 100 µM | ACHN > 100 µM | SR > 100 µM | CCRF-CEM > 100 µM | M14 > 100 µM | SF-539 > 100 µM | MCF7 > 100 µM | SK-MEL-2 > 100 µM | CAKI-1 > 100 µM | OVCAR-8 > 100 µM | OVCAR-3 > 100 µM | LOX IMVI > 100 µM | HT-29 > 100 µM | SF-295 > 100 µM | OVCAR-5 > 100 µM | PC-3 > 100 µM | SN12C > 100 µM

O=C1/C(=C\c2cccc(Oc3ccccc3)c2)SC(c2ccccc2)N1c1ccc(Cl)cc1 (centres undefined)
inactive: 786-0 52.4 µM | SK-MEL-5 4.79 µM | MDA-N 4.79 µM | ACHN 20.2 µM | SR 3.91 µM | CCRF-CEM 5.89 µM | M14 3.17 µM | SF-539 21.3 µM | MCF7 16.3 µM | SK-MEL-2 > 47.5 µM | CAKI-1 > 60.3 µM | OVCAR-8 32.9 µM | OVCAR-3 41.4 µM | LOX IMVI 15.8 µM | HT-29 30.8 µM | SF-295 7.11 µM | OVCAR-5 > 39.7 µM | PC-3 63.2 µM | SN12C 26.7 µM

Cc1ccc(C(=O)Oc2ccc(/C=C3\CCC/C(=C\c4ccc(OC(=O)c5ccc(C)cc5)cc4)C3=O)cc2)cc1
inactive: 786-0 > 100 µM | SK-MEL-5 > 100 µM | MDA-N > 100 µM | ACHN > 100 µM | SR > 100 µM | CCRF-CEM > 100 µM | M14 > 100 µM | SF-539 > 100 µM | MCF7 > 100 µM | SK-MEL-2 > 100 µM | CAKI-1 > 100 µM | OVCAR-8 > 100 µM | OVCAR-3 > 100 µM | LOX IMVI > 100 µM | HT-29 > 100 µM | SF-295 > 100 µM | OVCAR-5 > 100 µM | PC-3 > 100 µM | SN12C > 100 µM

Nc1ncnc2c1ncn2CCCNO
inactive: 786-0 > 100 µM | SK-MEL-5 > 100 µM | MDA-N > 100 µM | ACHN > 100 µM | SR > 100 µM | CCRF-CEM > 100 µM | M14 > 100 µM | SF-539 > 100 µM | MCF7 > 100 µM | SK-MEL-2 > 100 µM | CAKI-1 > 100 µM | OVCAR-8 > 100 µM | OVCAR-3 > 100 µM | LOX IMVI > 100 µM | HT-29 > 100 µM | SF-295 > 100 µM | OVCAR-5 > 100 µM | PC-3 > 100 µM | SN12C > 100 µM

Cn1nc2c(c1N)Cc1c(nn(C)c1N)-c1ccccc1-2
inactive: 786-0 > 100 µM | SK-MEL-5 > 100 µM | MDA-N > 100 µM | ACHN > 100 µM | SR > 100 µM | CCRF-CEM > 100 µM | M14 > 100 µM | SF-539 > 100 µM | MCF7 > 100 µM | SK-MEL-2 > 100 µM | CAKI-1 > 100 µM | OVCAR-8 > 100 µM | OVCAR-3 > 100 µM | LOX IMVI > 100 µM | HT-29 > 100 µM | SF-295 > 100 µM | OVCAR-5 > 100 µM | PC-3 > 100 µM | SN12C > 100 µM

Cc1c(O)oc2ccccc2c1=O
inactive: 786-0 > 100 µM | SK-MEL-5 > 100 µM | MDA-N > 100 µM | ACHN > 100 µM | SR > 100 µM | CCRF-CEM > 100 µM | M14 > 100 µM | SF-539 > 100 µM | MCF7 > 100 µM | SK-MEL-2 > 100 µM | CAKI-1 > 100 µM | OVCAR-8 > 100 µM | OVCAR-3 > 100 µM | LOX IMVI > 100 µM | HT-29 > 100 µM | SF-295 > 100 µM | OVCAR-5 > 100 µM | PC-3 > 100 µM | SN12C > 100 µM

CC/C(=N/O)c1ccc(Br)s1
inactive: 786-0 > 100 µM | SK-MEL-5 > 100 µM | MDA-N > 100 µM | ACHN 92 µM | SR 40.3 µM | CCRF-CEM 41.1 µM | M14 > 100 µM | SF-539 27.1 µM | MCF7 > 100 µM | SK-MEL-2 > 100 µM | CAKI-1 > 100 µM | OVCAR-8 > 100 µM | OVCAR-3 > 100 µM | LOX IMVI 51.9 µM | HT-29 > 100 µM | SF-295 > 100 µM | OVCAR-5 > 100 µM | PC-3 > 100 µM | SN12C > 100 µM

Cc1[nH]c2c(c1C)S(=O)(=O)c1cc3ccccc3nc1N2
inactive: 786-0 16.6 µM | SK-MEL-5 14.6 µM | MDA-N 15.7 µM | ACHN 29.5 µM | SR 17.1 µM | CCRF-CEM 5.09 µM | M14 20 µM | SF-539 6.81 µM | MCF7 5.15 µM | SK-MEL-2 55.3 µM | CAKI-1 30.5 µM | OVCAR-8 12.3 µM | OVCAR-3 19.9 µM | LOX IMVI 10.6 µM | HT-29 15 µM | SF-295 27.3 µM | OVCAR-5 19.7 µM | PC-3 34.3 µM | SN12C 16.4 µM

O=C1SC(SCc2ccccc2)=NC12CC2c1ccccc1 (centres undefined)
inactive: 786-0 19.4 µM | SK-MEL-5 17.8 µM | MDA-N 20.9 µM | ACHN 17.9 µM | SR 21.3 µM | CCRF-CEM 2.93 µM | M14 17.4 µM | SF-539 20.7 µM | MCF7 18.8 µM | SK-MEL-2 18.7 µM | CAKI-1 20 µM | OVCAR-8 19.4 µM | OVCAR-3 27.7 µM | LOX IMVI 18.8 µM | HT-29 21.3 µM | SF-295 19.7 µM | OVCAR-5 18.5 µM | PC-3 23.3 µM | SN12C 20 µM
